As usually defined, the MIC is the least concentration at which growth counts as inhibited.

The subject of one assay is S. epidermidis biofilms. The experiment in a line: MBIC and checkerboard synergy on preformed biofilm (MTT assay). Format: cell-based, Staphylococcus epidermidis. The following applies: for MBIC (drug alone): 6 hr treatment; for MBIC: S. epidermidis ATCC 12228 biofilm. The method, then: The ability of P128 to inhibit growth of S. aureus in a preformed biofilm was measured by determining minimum biofilm inhibition concentration (MBIC), defined as minimum concentration showing growth inhibition in a MTT based assay. Since P128 kills Staphylococcus cultures rapidly, it was expected to show a rapid effect on biofilms as well. Paul, et al. (2011) “A novel bacteriophage Tail-Associated Muralytic Enzyme (TAME) from Phage K and its development into a potent antistaphylococcal protein” BMC Microbiol. 11:226.
Culture conditions were optimized for reproducibly obtaining a robust biofilm of S. epidermidis in 96 well microtitre plates. For this purpose, biofilms were generated in microtiter plates and the surface-adhered cultures remaining after washing off the planktonic cells were analyzed at the end of 72 h by MTT dye assay. Briefly, an overnight-grown culture of the S. epidermidis strain was diluted 1:40 in LB broth. 200 μL of diluted culture was aliquoted into microtiter plate wells. Microplates were placed in a shaker-incubator set to 37° C., and 100 rpm for 24 h followed by 48 h incubation under static conditions at 37° C. The contents of wells were aspirated and discarded. Wells were washed twice with 1×PBS and the presence of biofilm in the wells at the end of 72-hour period was determined by metabolic dye-reduction assay method using MTT (3-(4,5-dimethylthiazol-2-yl)-2,5-diphenyltetrazolium bromide; Himedia). In this assay, live cells reduce the dye leading to color formation which can be read at 570 nm and the intensity of color can be correlated to number of live cells.
[…] LB supplemented with 50 μg/mL Ca^++ was used for daptomycin treatment wells. The contents of the well was aspirated out and discarded. The biofilm adhered to the wells was quantified by MTT assay as described above. In each experiment, in addition to the combination MBIC, the MBIC of each drug was also determined individually. The fractional MBIC concentrations were determined by MTT dye method as described above. The FICI and synergy was calculated.

A further assay has as its system S. aureus. The experiment in a line: MIC and checkerboard synergy (broth microdilution) on planktonic cells. The following applies: for MIC: Staphylococcus aureus. Format: cell-based, Staphylococcus aureus. The method, then:
MIC was determined using a modified Clinical and Laboratory Standards Institute (CLSI) broth microdilution procedure described earlier in Vipra, et al. (2012) “Antistaphylococcal activity of bacteriophage derived chimeric protein P128” BMC Microbiol. 12:41-50; and Clinical and Laboratory Standards Institute (2012) “Methods for Dilution Antimicrobial Susceptibility Tests for Bacteria That Grow Aerobically; Approved Standard” CLSI document M07-A9.9 ed. Wayne, Pa. USA. In order to determine effects of combinations of P128 with antibiotics, combinations of various dilutions of P128 and a second drug were tested for growth inhibition using a microdilution checkerboard technique. See Lu, et al. (2013) “In vitro activity of sodium new houttuyfonate alone and in combination with oxacillin or netilmicin against methicillin-resistant Staphylococcus aureus” PLoS One 8:e68053. Briefly, S. aureus culture at a final cell number of 5×10^5 CFU/mL was added to wells of 96-well microtiter plates (precoated with 0.5% BSA), containing two-fold dilutions of P128 and the second drug in cation adjusted Mueller Hinton Broth (CAMHB). The plates were incubated at 37° C. for 24 h and the individual MICs and the combination MICs were read. The fractional inhibitory concentration index (FICI) was determined using the following equation: FICI=(MIC of drug A in the combination/MIC of drug A alone)+(MIC of drug B in the combination/MIC of drug B alone). The combination was considered to be synergistic when the FICI was ≤0.5; additive when FICI was 0.5-1.0; indifferent when FICI was 1-4 and antagonistic when FICI≥4. The experiments were performed in triplicate and repeated twice.
In order to find out whether P128 can act in a synergistic manner with commonly used antibiotics, MIC based growth inhibition assays were performed. MIC based synergy was studied by checkerboard method by determining the FIC index using the method of Lu, et at (2013) “In vitro activity of sodium new houttuyfonate alone and in combination with oxacillin or netilmicin against methicillin-resistant Staphylococcus aureus” PLoS One 8:e68053. […] Similarly.
Bacterial cultures at a final cell number of 5×10^5 CFU/mL was added to wells of 96-well microtiter plates (precoated with 0.5% BSA), containing two-fold dilutions of P128 and the second drug in cation adjusted Mueller Hinton Broth (CAMHB). The plates were incubated at 37° C. for 24 h and the individual MICs and the combination MICs were read. The fractional inhibitory concentration index (FICI) was determined using the following equation: FICI=(MIC of drug A in the combination/MIC of drug A alone)+(MIC of drug B in the combination/MIC of drug B alone). The combination was considered to be synergistic when the FICI was ≤0.5; additive when FICI was 0.5-1.0; indifferent when FICI was 1-4 and antagonistic when FICI≥4.
In general terms: In broth dilution the organism is exposed to a series of concentrations in liquid medium.

[1] abbreviates: S. epidermidis B9470 72 h preformed biofilm.
Setting [2] is: S. epidermidis B9471 72 h preformed biofilm.
Setting [3] is: S. epidermidis B9472 72 h preformed biofilm.

Several values for one entry are separate records, joined by “and”; a condition that tells them apart may be missing. Identical values can stand only once. Like-named read-outs stand apart in the source and are kept apart here.

Turning to `CCCCCCCCCC(=O)N[C@@H](Cc1c[nH]c2ccccc12)C(=O)N[C@H](CC(N)=O)C(=O)N[C@@H](CC(=O)O)C(=O)N[C@@H]1C(=O)NCC(=O)N[C@@H](CCCN)C(=O)N[C@@H](CC(=O)O)C(=O)N[C@H](C)C(=O)N[C@@H](CC(=O)O)C(=O)NCC(=O)N[C@H](CO)C(=O)N[C@@H]([C@H](C)CC(=O)O)C(=O)N[C@@H](CC(=O)c2ccccc2N)C(=O)O[C@@H]1C` [Daptomycin, daptomycin], the “MBIC (drug alone)” value is 15.6 µg/mL in the assay on S. epidermidis biofilms (setting [1]), 15.6 µg/mL in the assay with S. epidermidis biofilms (setting [2]) and 7.8 µg/mL in the assay with S. epidermidis biofilms (setting [3]).

As for `CC(=O)NC[C@H]1CN(c2ccc(N3CCOCC3)c(F)c2)C(=O)O1` [Linezolid, linezolid], the MIC in the assay with S. aureus (24 h, LRSA strain B9456, read-out: MIC (drug alone)) was greater than 32 µg/mL; with S. aureus (24 h, LRSA strain B9457, read-out: MIC (drug alone)) it was 8 µg/mL. For the same molecule, the entries for the “MBIC (drug alone)” value with S. epidermidis biofilms (setting [1]), with S. epidermidis biofilms (setting [2]) and in the assay with S. epidermidis biofilms (setting [3]) were 7.8 µg/mL, 250 µg/mL and 250 µg/mL, respectively.

`CN[C@H](CC(C)C)C(=O)N[C@H]1C(=O)N[C@@H](CC(N)=O)C(=O)N[C@H]2C(=O)N[C@H]3C(=O)N[C@H](C(=O)N[C@H](C(=O)O)c4cc(O)cc(O)c4-c4cc3ccc4O)[C@H](O)c3ccc(c(Cl)c3)Oc3cc2cc(c3O[C@@H]2O[C@H](CO)[C@@H](O)[C@H](O)[C@H]2O[C@H]2C[C@](C)(N)[C@H](O)[C@H](C)O2)Oc2ccc(cc2Cl)[C@H]1O` [Vancomycin, vancomycin]: the minimum inhibitory concentration (MIC) in the assay with S. aureus (24 h, read-out: MIC (drug alone), S. aureus B9241 (gentamycin and ciprofloxacin resistant)) amounted to 1 µg/mL; in the assay with S. aureus (ATCC29213, read-out: MIC over the strains, ATCC29213, BK1 and B9241), 1 µg/mL; with S. aureus (ATCC 29213 / MSSA, 24 h, read-out: MIC (drug alone), S. aureus ATCC 29213 (MSSA)), 1 µg/mL; in the assay on S. aureus (MRSA, 24 h, read-out: MIC (drug alone), S. aureus BK1 (MRSA, ciprofloxacin resistant)), 1 µg/mL; in the assay on S. aureus (VRSA, 24 h, read-out: MIC (drug alone), VRSA strain VRS 1), 32 µg/mL; with S. aureus (VRSA, 24 h, read-out: MIC (drug alone), VRSA strain VRS 2) it was 32 µg/mL. For the same molecule, the MIC came to 32 µg/mL in the assay with S. aureus (VRSA, 24 h, read-out: MIC (drug alone), VRSA strain VRS 3a); 32 µg/mL in the assay on S. aureus (VRSA, 24 h, read-out: MIC (drug alone), VRSA strain VRS 3b); 32 µg/mL in the assay on S. aureus (VRSA, 24 h, read-out: MIC (drug alone), VRSA strain VRS 4); 16 µg/mL in the assay on S. aureus (VRSA, 24 h, read-out: MIC (drug alone), VRSA strain VRS 10). Besides, the “MBIC (drug alone)” value with S. epidermidis biofilms (setting [1]) was 7.8 µg/mL; in the assay on S. epidermidis biofilms (setting [2]) it was 250 µg/mL; with S. epidermidis biofilms (setting [3]), 250 µg/mL.

B1: P128: anti-staphylococcal chimeric protein: phage tail associated muralytic enzyme (TAME) cell wall-degrading region plus staphylococcus-specific binding region; SEQ ID NO: 1 (protein)
chain: MSLDSLKKYNGKLPKHDPSFVQPGNRHYKYQCTWYAYNRRGQLGIPVPLWGDAADWIGGAKGAGYGVGRTPKQGACVIWQRGVQGGSPQYGHVAFVEKVLDGGKKIFISEHNYATPNGYGTRTIDMSSAIGKNAQFIYDKKLETPNTGWKTNKYGTLYKSESASFTPNTDIITRTTGPFRSMPQSGVLKAGQTIHYDEVMKQDGHVWVGYTGNSGQRIYLPVRTWNKSTNTLGVLWGTIK
modifications: P128 chimera
B1: the “MIC over the strains” value with S. aureus (ATCC29213, BK1 and B9241) fell in the range of 4 to 8 µg/mL. The “MIC (drug alone)” value in the assay with S. aureus (LRSA strain B9456) came out at 2 µg/mL; with S. aureus (LRSA strain B9457) it was 1 µg/mL; in the assay on S. aureus (MRSA strain BK22), 0.45 µg/mL; in the assay with S. aureus (S. aureus ATCC 29213 (MSSA)) it was 4 µg/mL; in the assay on S. aureus (S. aureus B9241 (gentamycin and ciprofloxacin resistant)), 8 µg/mL; with S. aureus (S. aureus BK1 (MRSA, ciprofloxacin resistant)), 4 µg/mL. The “MIC (drug alone)” value in the assay on S. aureus (S. aureus BK18) is 2 µg/mL and 4 µg/mL; in the assay on S. aureus (VRSA strain VRS 1) it was 1.9 µg/mL; in the assay on S. aureus (VRSA strain VRS 2), 1.9 µg/mL; in the assay with S. aureus (VRSA strain VRS 3a), 1.9 µg/mL; in the assay with S. aureus (VRSA strain VRS 3b), 0.97 µg/mL; in the assay on S. aureus (VRSA strain VRS 4) it was 1.9 µg/mL. In the assay with S. aureus (VRSA strain VRS 10), the “MIC (drug alone)” value stood at 3.9 µg/mL. For the same molecule, the MBIC in the assay on S. epidermidis biofilms (4 h) is 7.8 µg/mL; with S. epidermidis biofilms (6 h), 7.8 µg/mL; in the assay with S. epidermidis biofilms (8 h), 7.8 µg/mL; with S. epidermidis biofilms (24 h), greater than 1000 µg/mL. The “MBIC (drug alone)” value is 32 µg/mL and 16 µg/mL with S. epidermidis biofilms (setting [1]); 32 µg/mL with S. epidermidis biofilms (setting [2]); 32 µg/mL with S. epidermidis biofilms (setting [3]).

The values are drawn from patent US20190282673A1, “STAPHTAME ACTIVITY ON BIOFILMS” (priority 2016, published 2019).
